Values after ≈ are worked out from the molar mass of the structure shown.
System: HeLa cells
Test: Inhibitory effects of compounds on HeLa cell proliferation in vitro
Format: cell-based
Details: Homo sapiens; exponentially growing HeLa cells, incubated with test compound for 96 hours; concentration at 50% inhibition of cell growth
Method: The inhibitory effect of various compounds of formula (1) on HeLa cell proliferation in vitro was determined according to the method described by Sunkara et al. [J. Natl Cancer Instit. 70, 505-509 (1983)]. Exponentially growing HeLa cells were incubated in the presence or absence of various concentrations of test compounds for 96 hours. IC50 values were calculated which represent the test compound concentration at 50% inhibition of cell growth.

IC50 | Compound
1 to 5 µg/mL (≈ 3.89 to 19.4 µM) | Nc1ccn([C@@H]2O[C@H](CO)[C@@H](O)/C2=C/F)c(=O)n1 [Compound B, (Z)-2′-deoxy-2′-fluoromethylidene cytidine]
0.01 to 0.015 µg/mL (≈ 0.0389 to 0.0583 µM) | Nc1ccn([C@@H]2O[C@H](CO)[C@@H](O)/C2=C\F)c(=O)n1 [Compound A, (E)-2′-deoxy-2′-fluoromethylidene cytidine]

Source: US20040063659A1, “Novel 2'-halomethylidene,2'-ethenylidene and 2'-ethynyl cytidine, uridine and guanosine derivatives” (Merrell Pharmaceuticals Inc., priority 1988, published 2004)
